Reference: patent publication US20100210649A1, “PYRIDAZINONES AND FURAN-CONTAINING COMPOUNDS” (Sloan-Kettering Institute for Cancer Research, priority 2006, published 2010)
Like-named read-outs stand apart in the source and are kept apart here.

Key:
Type in all cases: cell-based, human
[1] = tested on: H3255; assay: Non Small Cell Lung Cancer proliferation assay (Alamar Blue reduction), H3255; details: Homo sapiens, NCI-H3255, primary screening, 10 μM compound in 1% DMSO (v/v)
Description: (§1) These cells have a doubling time of 1-2 days. All cell types are adherent and grow in colonies. The cells should be kept at a density between 50,000 cells/mL -500,000 cells/mL to provide for optimum growth and adequate nutrition. The cell line should be maintained at 37° C. in a humidified atmosphere with 5% CO2 in a sterile cell culture incubator.
(§2) Non Small Cell Lung Cancer Proliferation Assay.
(§3) High Controls for this assay are made by treating Non Small Cell Lung Cancer cells with 5 ul of 10% DMSO. [Final concentration in this assay is 1% DMSO].
(§4) Important Note: All compounds for testing in this assay should be done at the final concentration of 1% DMSO.
(§5) After addition, the cells are placed in cell culture incubator at 37° C. for 48 hours for complete treatment.
(§6) After drug treatment, cytotoxicity is measured by Alamar Blue reduction.
(§7) The cells are incubated for 48 hours at 37° C. to complete the Alamar Blue reduction.
(§8) The final step in the assay is to measure the amount of Alamar Blue reduction. […] The Alamar Blue fluorescence is measured at an excitation of 530 nm and emission of 590 nm.
(§9) For the NSCLC project, the cell based assay was screened against a small molecule library of approximately 200,000 compounds. The compound library is stored in our automated robotic freezer (Biophile) at −20° C. in 100% DMSO. Compound freeze and thaw cycles are kept to a minimum. […] This assay was performed on a fully automated linear track robotic platform (CRS F3 Robot System, Thermo Electron Corp., Ontario, Canada) utilizing several integrated peripherals for plate handling, liquid dispensing, and readout detection. […] The microplates are then placed at 37° C. for 48 hours to complete treatment of cells with compounds. Next, 5 ul of alamar blue was added using a liquid dispenser (Flexprop Precision Dispenser, Perkin Elmer, Mass., USA) and incubated for 48 hours at 37° C. The alamar blue prompt fluorescence was measured on Victor V (Victor^3 V, Perkin Elmer, Mass., USA) and output data files were loaded into ORIS (Oncology Research Informatics System, MSKCC, NY, USA), a screening data acquisition and analysis platform.
(§10) The dose response studies were done with the following standard procedure. First, the cells were counted and dispensed at 250 cells/well into 384-well microplates with compound. The cells were incubated for 48 hours at 37 C to complete treatment, and then alamar blue was added for an additional 48 hours. Finally, alamar blue reduction was measured and the data was loaded into ORIS, our data screening acquisition platform.

[2] = tested on: H1975; assay: Non Small Cell Lung Cancer proliferation assay (Alamar Blue reduction), H1975; details: Homo sapiens, NCI-H1975, primary screening, 10 μM compound in 1% DMSO (v/v)
Description: as §1, §2, §3, §4, §5, §6, §7, §8, §9, §10

[3] = tested on: H1650; assay: Non Small Cell Lung Cancer proliferation assay (Alamar Blue reduction), H1650; details: Homo sapiens, NCI-H1650, primary screening, 10 μM compound in 1% DMSO (v/v)
Description: as §1, §2, §3, §4, §5, §6, §7, §8, §9, §10

[4] = tested on: H2030; assay: Non Small Cell Lung Cancer proliferation assay (Alamar Blue reduction), H2030; details: Homo sapiens, NCI-H2030, primary screening, 10 μM compound in 1% DMSO (v/v)
Description: as §1, §2, §3, §4, §5, §6, §7, §8, §9, §10

[5] = H3255, read-out: PRIMARY HTS [%] H3255 (percentage inhibition)
[6] = H1975, read-out: PRIMARY HTS [%] H1975 (percentage inhibition)
[7] = H1650, read-out: PRIMARY HTS [%] H1650 (percentage inhibition)
[8] = H2030, read-out: PRIMARY HTS [%] H2030 (percentage inhibition)
[9] = read-out: percentage inhibition H3255
[10] = read-out: percentage inhibition H1975
[11] = read-out: percentage inhibition H1650
[12] = read-out: percentage inhibition H2030

`O=C(Nc1ccc(Cl)cc1O)c1ccco1` [compound 75072] gave an inhibition at 10 µM [1, 5] of 1%, an inhibition at 10 µM [2, 6] of 0% and an inhibition at 10 µM [3, 7] of 13%. For the same molecule, the inhibition at 10 µM [4, 8] was 5%.
With `O=C(Nc1ccc(NC(=O)c2ccco2)c(O)c1)c1ccccc1` [compound 76839] the inhibition at 10 µM [1, 5] was 2%, the inhibition at 10 µM [2, 6] was 3% and the inhibition at 10 µM [3, 7] was 20%. For the same molecule, the inhibition at 10 µM [4, 8] was -6%.
Molecule `CN1CCN(c2cnn(-c3ccc(Cl)cc3)c(=O)c2Cl)CC1` [compound 194618] has an inhibition at 10 µM [1, 9] of -48%, an inhibition at 10 µM [2, 10] of -3% and an inhibition at 10 µM [3, 11] of -15%. It also gave an inhibition at 10 µM [4, 12] of -6%.
Work on `O=c1c(SCc2ccccc2)cc(Cl)nn1-c1ccccc1` [compound 208702] yielded an inhibition at 10 µM [1, 9] of 0%, an inhibition at 10 µM [2, 10] of -16% and an inhibition at 10 µM [3, 11] of 3%. For the same molecule, the inhibition at 10 µM [4, 12] was -15%.
`CN1CCN(Cc2ccc([N+](=O)[O-])o2)CC1` [compound 100652] gave an inhibition at 10 µM [1, 5] of -3%, an inhibition at 10 µM [2, 6] of -2% and an inhibition at 10 µM [3, 7] of -12%. For the same molecule, the inhibition at 10 µM [4, 8] was -6%.
With `Cc1ccc(C(=O)N2CCN(c3ccc(NC(=O)c4ccco4)cc3)CC2)cc1` [compound 95436] the inhibition at 10 µM [1, 5] was -3%, the inhibition at 10 µM [2, 6] was -12% and the inhibition at 10 µM [3, 7] was 2%. For the same molecule, the inhibition at 10 µM [4, 8] was 2%.
In the case of `O=c1ccc(Oc2nc(N3CCCCC3)nc(N3CCCCC3)n2)nn1-c1ccccc1` [compound 196618], the inhibition at 10 µM [1, 9] is reported as -33%, the inhibition at 10 µM [2, 10] is reported as -14% and the inhibition at 10 µM [3, 11] is reported as 3%. For the same molecule, the inhibition at 10 µM [4, 12] was 12%.
`O=C(O)c1ccc(-n2ncc(Cl)c(Cl)c2=O)cc1` [compound 197940] gave an inhibition at 10 µM [1, 9] of -37%, an inhibition at 10 µM [2, 10] of -6% and an inhibition at 10 µM [3, 11] of 11%. It also gave an inhibition at 10 µM [4, 12] of 2%.
`COc1cnn(-c2ccccc2)c(=O)c1N(C)C` [compound 103971] showed an inhibition at 10 µM [1, 9] of -1%, an inhibition at 10 µM [2, 10] of -10% and an inhibition at 10 µM [3, 11] of 5%. The inhibition at 10 µM [4, 12] was 1%.
In the case of `CCOC(=O)C(C)Oc1ccc(=O)n(-c2ccccc2)n1` (stereo not drawn) [compound 185423], the inhibition at 10 µM [1, 9] is reported as 23%, the inhibition at 10 µM [2, 10] is reported as -9% and the inhibition at 10 µM [3, 11] is reported as 16%. It also gave an inhibition at 10 µM [4, 12] of 3%.
With `O=c1c(SCc2ccc(Cl)cc2Cl)c(SC2CCCCO2)cnn1-c1ccccc1` (stereo not drawn) [compound 224771] the inhibition at 10 µM [1, 9] was 30%, the inhibition at 10 µM [2, 10] was -21% and the inhibition at 10 µM [3, 11] was -12%. It also gave an inhibition at 10 µM [4, 12] of 3%.
In the case of `CCSc1cnn(-c2ccccc2)c(=O)c1SCC` [compound 174406], the inhibition at 10 µM [1, 9] is reported as 8%, the inhibition at 10 µM [2, 10] is reported as 3% and the inhibition at 10 µM [3, 11] is reported as 18%. For the same molecule, the inhibition at 10 µM [4, 12] was -9%.
With `COc1cnn(-c2ccc([N+](=O)[O-])cc2)c(=O)c1Cl` [compound 104339] the inhibition at 10 µM [1, 9] was 3%, the inhibition at 10 µM [2, 10] was -9% and the inhibition at 10 µM [3, 11] was -21%. It also gave an inhibition at 10 µM [4, 12] of -3%.
Molecule `COc1ccc(-n2nc(C(=O)c3ccco3)cc(-c3nc4ccccc4[nH]3)c2=N)cc1` [compound 182721] has an inhibition at 10 µM [1, 9] of 4%, an inhibition at 10 µM [2, 10] of 9% and an inhibition at 10 µM [3, 11] of 8%. For the same molecule, the inhibition at 10 µM [4, 12] was 11%.
`O=c1c(Cl)c(Cl)cnn1-c1cccc(Cl)c1` [compound 104188] gave an inhibition at 10 µM [1, 9] of 4%, an inhibition at 10 µM [2, 10] of 102% and an inhibition at 10 µM [3, 11] of -13%. It also gave an inhibition at 10 µM [4, 12] of -4%.
`O=c1c(Cl)c(Cl)cnn1-c1ccc(Cl)cc1` [compound 104004] showed an inhibition at 10 µM [1, 9] of 90%, an inhibition at 10 µM [2, 10] of 98% and an inhibition at 10 µM [3, 11] of 1%. The inhibition at 10 µM [4, 12] was 75%.
For `CCc1ccccc1NC(=O)c1ccc([N+](=O)[O-])o1` [compound 103960], the inhibition at 10 µM [1, 5] was 68%, the inhibition at 10 µM [2, 6] was 41% and the inhibition at 10 µM [3, 7] was 62%. For the same molecule, the inhibition at 10 µM [4, 8] was 73%.
`CCCCSc1cnn(-c2ccccc2)c(=O)c1SCc1ccccc1` [compound 208696] showed an inhibition at 10 µM [1, 9] of 37%, an inhibition at 10 µM [2, 10] of -19% and an inhibition at 10 µM [3, 11] of -2%. For the same molecule, the inhibition at 10 µM [4, 12] was 4%.
